From US9254308B2, “Kits and methods for the treatment of cancer using gliadin peptides” (BARMARSA RESEARCH LLC, priority 2013, dated 2016)
Where no end group is shown, it is not given here.

Columns and labels:
[1] = tested on: PANC-1 human pancreatic carcinoma cells; assay: Cell count, PANC-1 cells, 5-FU 72-hour treatment; format: cell-based; details: PANC-1, 72 h
PANC-1 cells = assay: Cell count, PANC-1 cells, 14-day treatment regimen; format: cell-based, human
Protocol: All treatments were conducted in triplicate. […] Media was refreshed with the respective treatments every 72 hours. After 14 days of treatment, cells were trypsinized and counted.

A549 cells [2] = assay: Cell count, A549 cells, 14-day treatment regimen; format: cell-based, human; details: A549, 14 days; 3.3 μM cisplatin
Protocol: All treatments were conducted in triplicate. […] Media was refreshed with the respective treatments every 72 hours.

A549 cells [3] = assay: Cell count, A549 cells, cisplatin 72-hour treatment; format: cell-based, human; details: A549, 72 h
Protocol: All experiments were conducted in triplicate.

NSCLC = details: Caucasian NSCLC patients; Gottschling 2012; cited from earlier work
[4] = tested on: PANC-1 pancreatic carcinoma cells; assay: MTT growth inhibition, PANC-1 cells, 72-hour treatment; details: for Mean absorbance (570 nm): PANC-1, 72 h, 1 μg/mL gefitinib or erlotinib alone
Protocol: (§1) Cells were kept at 37° C. in a humidified atmosphere of 5% CO2 and grown until they reached a confluency of 90%. Cells were then washed, trypsinized, and counted using a Coulter counter.
(§2) Cells were plated at a density of 10,000 cells/well in 24-well cell culture plates and allowed to adhere for 24 hours. […] All experiments were conducted in sextuplicate. […] Following 72 hours of treatment, growth inhibition was evaluated by the MTT assay according to the manufacturer's instructions. The absorbance at 570 nm was measured using a plate reader.

A549 NSCLC cells = assay: MTT growth inhibition, A549 cells, 72-hour treatment
Protocol: as §1
A549 NSCLC cells were maintained and cultured as described above. […] Cells were plated at a density of 10,000 cells/well in 24-well cell culture plates and allowed to adhere for 24 hours. […] All experiments were conducted in sextuplicate. […] Following 72 hours of treatment, growth inhibition was evaluated by the 3-(4,5-dimethylthiazol-2-yl)-2,5-diphenyltetrazolium bromide (MTT) assay (Roche Diagnostics Corporation, Indianapolis, Ind.) according to the manufacturer's instructions. The absorbance at 570 nm was measured using a plate reader (BioTek, Winooski, Vt.).

[5] = tested on: NCI-H1975 NSCLC cells (EGFR L858R, T790M); assay: MTT growth inhibition, NCI-H1975 cells, 72-hour treatment
Protocol: as §1, §2

A549 cells [6] = assay: TUNEL apoptosis assay, A549 cells; format: cell-based, human; details: A549, 72 h, 1 μM gefitinib alone
Protocol: The ability of alpha-gliadin p31-43 to induce apoptosis in cancer cells was assessed. […] Cells were grown in the presence of 5% CO2 at 37° C. in an incubator.
Briefly, A549 cells (1×10^5) were plated in chamber slides and allowed to adhere overnight. […] After the 72-hour treatment, the cells were fixed with 4% formaldehyde in PBS (pH 7.4) for 25 minutes at room temperature, then washed twice for 5 minutes in PBS, permeabilized in 0.2% Triton X-100 solution in PBS for 5 minutes at room temperature, and finally washed twice for 5 minutes in PBS. Apoptosis was measured using the DeadEnd™ Colorimetric TUNEL System (Promega, Madison, Wis.) according to the manufacturer's instructions. At the end of the assay, the cells were mounted and observed under the microscope.

[7] = tested on: A549 human lung cancer xenograft; assay: A549 human lung cancer xenograft model, tumor volume; format: in vivo, nude mice; details: alone or with 200 μg gliadin i.v.; for Mean Tumor Volume: 150 mg/kg gefitinib by gavage once daily 14 days
Text: Six-week old female nude mice (Harlan Laboratories, Indianapolis, Ind.) were quarantined for 3 days and housed 5 mice per cage, with a 12-hour light-dark cycle, and a relative humidity of 50%. Drinking water and diet were supplied to the animals ad libitum. All animals were housed under pathogen-free conditions. […] The animals were monitored for two weeks following the 14-day treatment period. Tumor measurements were initiated as soon as the tumor formed a palpable mass and measured twice weekly.

[8] = Toxicity in BALB/c mice (body weight, behavior, deaths); format: in vivo; details: female BALB/c mice
Protocol: The toxicity of alpha-gliadin peptide p31-43 in animals was evaluated. Five- to six-week old female BALB/c mice were dosed with vehicle (100 μL DMSO/saline) administered subcutaneously once a day for five days (Group 1) or 200 μg of alpha-gliadin peptide p31-43 in vehicle administered subcutaneously once a day for five days (Group 2). To prepare the gliadin solution, 70 μL of sterile DMSO was added to 1 mg of alpha-gliadin peptide p31-43 and vortexed to dissolve the peptide. After the peptide was dissolved, 430 μL of sterile 0.9% sodium chloride was added and vortexed to create a 1000 μg/500 μL solution of alpha-gliadin peptide p31-43.
Toxicity was evaluated using daily weight measurements and behavior assessments. […] At the end of the study, the mean body weights (±SE) were 19.8±0.4 grams for Group 1 (n=5) and 20.0±0.3 grams for Group 2 (n=5). […] Alpha-gliadin peptide p31-43 was therefore tolerated at a dosing level of 10 mg/kg/day without apparent toxicity.

[9] = tested on: 5-FU-resistant PANC-1 cells; assay: Cell count, surviving 5-FU-resistant PANC-1 cells, 7-day gliadin treatment; format: cell-based, human; details: 100 μg/mL or 200 μg/mL for 7 additional days
Protocol: In order to examine the effects of alpha-gliadin peptide p31-43 on PANC-1 cells exposed to 5-FU for an extended period of time (14 days), an experiment was conducted on the surviving, i.e., resistant, cell population (4%) from the previous experiment. Briefly, after counting viable cells on day 14 of treatment, surviving cells were replated at a density of 5,000 cells per well. The following day, cells were treated with vehicle or 100 μg/mL or 200 μg/mL of alpha-gliadin peptide p31-43. Media containing the respective treatments was refreshed on day 3 and 6. On day 7, cells were trypsinized and counted.

[10] = 200 μg subcutaneously once a day for five days

O=c1[nH]cc(F)c(=O)[nH]1 [5-FU, 5-Fluorouracil]
inhibition at 6.25 µM ([1]; Homo sapiens, 5-FU 6.25 μM): 63.3% | inhibition at 12.5 µM ([1]; Homo sapiens, 5-FU 12.5 μM): 63% | inhibition at 25 µM ([1]; Homo sapiens, 5-FU 25.0 μM): 62.8% | inhibition at 50 µM ([1]; Homo sapiens, 5-FU 50.0 μM): 63% | inhibition at 100 µM ([1]; Homo sapiens, 5-FU 100.0 μM): 68.5% | inhibition at 200 µM ([1]; Homo sapiens, 5-FU 200.0 μM): 73.6% | inhibition at 400 µM ([1]; Homo sapiens, 5-FU 400.0 μM): 79.2% | Mean Cell Number/mL ([1]; 5-FU 6.25 μM): 116,500 /mL | Mean Cell Number/mL ([1]; 5-FU 12.5 μM): 117,500 /mL | Mean Cell Number/mL ([1]; 5-FU 25.0 μM): 118,200 /mL | Mean Cell Number/mL ([1]; 5-FU 50.0 μM): 100,200 /mL | Mean Cell Number/mL ([1]; 5-FU 100.0 μM): 117,600 /mL | Mean Cell Number/mL ([1]; 5-FU 200.0 μM): 83,900 /mL | Mean Cell Number/mL ([1]; 5-FU 400.0 μM): 66,200 /mL | inhibition at 6.25 µM (PANC-1 cells; Homo sapiens, 336 h, PANC-1, 14 days, 6.25 μM 5-FU): 96% | Mean Cell Number/mL (PANC-1 cells; PANC-1, 14 days, 6.25 μM 5-FU): 33,233 /mL | surviving 5-FU-resistant population remaining viable, of the initial population (PANC-1 cells; PANC-1, following 14-day 5-FU treatment): 4%

N.N.[Cl][Pt][Cl] [cisplatin]
% Inhibition (A549 cells [2]): 98% | Mean Cell Number/mL (A549 cells [2]): 5,780 /mL | % Inhibition (A549 cells [3]; cisplatin 0.103 μM): 13.5% | Mean Cell (A549 cells [3]; cisplatin 0.103 μM): 166,883 | % Inhibition (A549 cells [3]; cisplatin 0.207 μM): 21.8% | Mean Cell (A549 cells [3]; cisplatin 0.207 μM): 150,917 | % Inhibition (A549 cells [3]; cisplatin 0.413 μM): 42.0% | Mean Cell (A549 cells [3]; cisplatin 0.413 μM): 111,917 | % Inhibition (A549 cells [3]; cisplatin 0.825 μM): 74.9% | Mean Cell (A549 cells [3]; cisplatin 0.825 μM): 48,400 | % Inhibition (A549 cells [3]; cisplatin 1.650 μM): 91.6% | Mean Cell (A549 cells [3]; cisplatin 1.650 μM): 16,117 | % Inhibition (A549 cells [3]; cisplatin 3.300 μM): 94.8% | Mean Cell (A549 cells [3]; cisplatin 3.300 μM): 10,033

C#Cc1cccc(Nc2ncnc3cc(OCCOC)c(OCCOC)cc23)c1 [erlotinib]
patients exhibiting significant changes in disease progression following therapy (NSCLC): about 10% | % Inhibition [4]: 0% | Mean absorbance (570 nm) [4]: 1.98 | % Inhibition (A549 NSCLC cells): 3.4% | Mean absorbance (570 nm) (A549 NSCLC cells): 1.44 | Mean absorbance (570 nm) [5]: 1.73

COc1cc2ncnc(Nc3ccc(F)c(Cl)c3)c2cc1OCCCN1CCOCC1 [gefitinib]
patients exhibiting significant changes in disease progression following therapy (NSCLC): about 10% | Mean absorbance (570 nm) [4]: 2.11 | Mean absorbance (570 nm) (A549 NSCLC cells): 1.35 | Mean % apoptotic (A549 cells [6]): 19% | tumor doubling time ([7]; A549 xenograft, 150 mg/kg gefitinib): 24.48 days | Mean Tumor Volume ([7]; Study Day 4 (dosing period)): 47.74 ± 2.87 mm^3 | Mean Tumor Volume ([7]; Study Day 7 (dosing period)): 51.67 ± 5.69 mm^3 | Mean Tumor Volume ([7]; Study Day 11 (dosing period)): 49.30 ± 3.77 mm^3 | Mean Tumor Volume ([7]; Study Day 14 (dosing period)): 60.43 ± 5.35 mm^3 | Mean Tumor Volume ([7]; Study Day 18 (recovery period)): 75.40 ± 9.05 mm^3 | Mean Tumor Volume ([7]; Study Day 21 (recovery period)): 95.22 ± 11.15 mm^3 | Mean Tumor Volume ([7]; Study Day 25 (recovery period)): 157.69 ± 14.76 mm^3 | Mean Tumor Volume ([7]; Study Day 28 (recovery period, termination), 150 mg/kg): 239.25±32.78 mm^3

LGQQQPFPPQQPY [gliadin, alpha-gliadin peptide p31-43]
behavior changes compared to control mice [8, 10]: No behavior changes were observed | treatment-related deaths [8, 10]: no treatment-related deaths | mean body weight (±SE) at the end of the study ([8]; 200 μg subcutaneously once a day for five days, n=5): 20.0±0.3 grams | NOAEL at 120 h ([8]; mouse, in vivo, sc, 200 ug, subcutaneously, five days, read-out: dosing level tolerated without apparent toxicity): 10 mg/kg/day | cell proliferation of surviving 5-FU-treated PANC-1 cells [9]: cell proliferation was significantly suppressed
